Laboratory results from patent publication US20250195452A1, “ER-BETA ESTROGENIC COMPOUNDS AND METHODS OF USE” (laterion, Inc., priority 2022, published 2025).
“Also recorded” adds a separate entry of the source.

Legend:
ERα = target: T1, ERα (Homo sapiens, UniProt P03372); assay: Luciferase activity of ligands on the activation of the NKG2E ERE in U2OS-ERα cells; type: cell-based; settings: for Activity in ERα U2OS cells: indicated micromolar concentrations, 24 hours; for Activation of ERα (NKG2E ERE luciferase activity): U2OS-ERα cells
T1 construct: expressed in transfected cells; host or cells: U2OS
T1 sequence (P03372 1-595): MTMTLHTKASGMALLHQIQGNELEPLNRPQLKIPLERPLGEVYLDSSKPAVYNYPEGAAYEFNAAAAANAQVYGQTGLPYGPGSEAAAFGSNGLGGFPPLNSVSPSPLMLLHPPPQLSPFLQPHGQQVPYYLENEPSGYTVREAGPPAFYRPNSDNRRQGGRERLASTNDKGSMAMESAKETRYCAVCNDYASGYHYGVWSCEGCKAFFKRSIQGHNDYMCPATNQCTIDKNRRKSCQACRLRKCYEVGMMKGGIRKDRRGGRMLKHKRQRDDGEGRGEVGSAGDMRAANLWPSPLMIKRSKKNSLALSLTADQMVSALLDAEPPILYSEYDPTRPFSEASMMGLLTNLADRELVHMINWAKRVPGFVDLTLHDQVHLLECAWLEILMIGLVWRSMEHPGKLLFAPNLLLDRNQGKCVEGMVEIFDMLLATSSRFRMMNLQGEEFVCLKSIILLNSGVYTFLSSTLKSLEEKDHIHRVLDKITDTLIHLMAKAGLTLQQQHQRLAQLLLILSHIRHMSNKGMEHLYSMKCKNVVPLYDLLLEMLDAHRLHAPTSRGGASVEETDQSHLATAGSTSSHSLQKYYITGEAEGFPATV
From the text: (§1) U2OS cells (wild type) were maintained in 5% charcoal-dextran stripped FBS.

ERβ = target: T2, ERβ (Homo sapiens, UniProt Q92731); assay: Luciferase activity in U2OS cells transfected with NKG2E-TK-Luc and ERβ; type: cell-based; settings: 200 nM
T2 construct: expressed in transfected cells; host or cells: U2OS
T2 sequence (Q92731 whole entry): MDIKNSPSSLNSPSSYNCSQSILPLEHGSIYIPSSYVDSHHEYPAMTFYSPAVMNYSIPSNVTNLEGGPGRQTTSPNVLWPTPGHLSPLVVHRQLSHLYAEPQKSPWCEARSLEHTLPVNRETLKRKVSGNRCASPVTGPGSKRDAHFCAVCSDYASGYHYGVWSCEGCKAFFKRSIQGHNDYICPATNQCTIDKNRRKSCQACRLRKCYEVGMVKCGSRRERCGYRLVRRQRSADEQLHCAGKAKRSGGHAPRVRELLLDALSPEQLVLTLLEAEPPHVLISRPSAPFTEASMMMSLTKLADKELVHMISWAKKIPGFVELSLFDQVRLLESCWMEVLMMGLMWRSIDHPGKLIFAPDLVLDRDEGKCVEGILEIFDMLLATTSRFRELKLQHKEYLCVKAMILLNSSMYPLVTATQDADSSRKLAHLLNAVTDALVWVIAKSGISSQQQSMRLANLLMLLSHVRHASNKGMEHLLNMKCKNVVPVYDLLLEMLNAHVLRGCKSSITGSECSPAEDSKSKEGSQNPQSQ
Protocol: as §1
Luciferase activity for each of the tested compounds was recorded.

GRE-TK-Luk, GR, and ERβ = assay: Luciferase activity in GRE-TK-Luc-transfected U2OS-ERβ cells with doxycycline and hydrocortisone; type: cell-based; settings: HC 100 nM; compounds at 0.5, 1, 2.5 and 5 μM; doxycycline
Protocol: Example 12: Luciferase Activity in GRE-TK-Luc-Transfected U2OS-ERβ cells with doxycycline. Doxycycline-dependent U2OS cells were transfected with GRE-TK-Luk, GR, and ERβ in the presence of hydrocortisone (HC, 100 nM) alone or in combination with Liquiritigenin, A10, A13, and A15. Luciferase activity for each of the compounds at 0.5, 1, 2.5 and 5 μM concentration was recorded.

[1] = test system: MCF-7 breast cancer cells; assay: Effects of ERβ compounds on breast cancer tumor formation (histology, FIG. 16A-B); type: in vivo; settings: in comparison to estradiol
[2] = Effects of ERβ compounds on uterine weight (histology, FIG. 16A-B); type: in vivo; settings: in comparison to estradiol
From the text: Example 11: Effects of ERβ compounds on uterine and breast cancer cells.

Molecule	Activity in ERα U2OS cells (ERα)	Activation of ERβ (NKG2E-TK-Luc luciferase activity) (ERβ)	further results
COc1c(O)cc2oc(-c3ccc(O)c(O)c3)cc(=O)c2c1O [6-methoxyluteolin]	little or no activity		
O=c1cc(-c2ccc(O)cc2)oc2cc(O)ccc12 [7,4′-Dihydroxyflavone]	little or no activity	activate ERβ	Activation of ERα (NKG2E ERE luciferase activity) (ERα; 5 μM): activate ERα
O=C(/C=C/c1cccc(O)c1)c1ccc(O)c(O)c1O [A10, (E)-3-(3-hydroxyphenyl)-1-(2,3,4-trihydroxyphenyl) prop-2-en-1-one]			Effect on hydrocortisone (HC) induced luciferase activity (GRE-TK-Luk, GR, and ERβ): attenuated the effect of HC
O=C(/C=C/c1ccc(O)cc1)c1ccccc1 [A15, (E)-3-(4-hydroxyphenyl)-1-phenylprop-2-en-1-one]			Effect on hydrocortisone (HC) induced luciferase activity (GRE-TK-Luk, GR, and ERβ): attenuated the effect of HC
O=C(/C=C/c1ccc(O)cc1)c1ccc(O)cc1 [Analog 13, (E)-1,3-bis(4-hydroxyphenyl) prop-2-en-1-one]		activate ERβ	Effect on hydrocortisone (HC) induced luciferase activity (GRE-TK-Luk, GR, and ERβ): attenuated the effect of HC; Activation of ERα (NKG2E ERE luciferase activity) (ERα; 5 μM): activate ERα
Oc1ccc([C@H]2COc3cc(O)ccc3C2)cc1 [Equol]	little or no activity		Activation of ERα (NKG2E ERE luciferase activity) (ERα; 1 μM): activate ERα
O=c1c(O)c(-c2ccccc2)oc2cc(O)cc(O)c12 [Galangin]	little or no activity		
O=C1C[C@@H](c2ccc(O)cc2)Oc2cc(O)ccc21 [Liquiritigenin]	little or no activity		Effect on hydrocortisone (HC) induced luciferase activity (GRE-TK-Luk, GR, and ERβ): attenuated the effect of HC; Breast cancer tumor formation ([1]; listed as IATERB7): do not increase uterine weight or cause breast cancer tumor formation; also recorded: do not increase uterine breast cancer tumor formation; Uterine weight [2]: do not increase uterine weight; Activation of ERα (NKG2E ERE luciferase activity) (ERα; 5 μM): activate ERα
O=C1C[C@@H](c2ccc(O)cc2)Oc2cc(O)cc(O)c21 [Naringenin]	little or no activity	activate ERβ	
C=C[C@H](/C=C\c1ccc(O)cc1)c1ccc(O)cc1 [Nyasol]	little or no activity	activate ERβ	Breast cancer tumor formation ([1]; listed as IATERB5): do not increase uterine weight or cause breast cancer tumor formation; also recorded: do not increase uterine breast cancer tumor formation; Uterine weight [2]: do not increase uterine weight; Activation of ERα (NKG2E ERE luciferase activity) (ERα; 1 μM): activate ERα
Broussonin A	little or no activity		Activation of ERα (NKG2E ERE luciferase activity) (ERα; 1 μM): activate ERα

Further lines, with some results ahead:

Activity in ERα U2OS cells (ERα)	Activation of ERβ (NKG2E-TK-Luc luciferase activity) (ERβ)	Molecule	further results
little or no activity		O=c1c(O)c(-c2ccc(O)cc2)oc2ccccc12 [3,4′-Dihydroxyflavone]	
little or no activity	activate ERβ	O=c1cc(-c2ccc(O)cc2)oc2cccc(O)c12 [5,4′-Dihydroxyflavone]	
little or no activity	activate ERβ	O=c1cc(-c2ccc(O)cc2)oc2ccc(O)cc12 [6,4′-Dihydroxyflavone]	Activation of ERα (NKG2E ERE luciferase activity) (ERα; 1 μM): activate ERα
little or no activity		O=c1cc(-c2ccccc2O)oc2cc(O)ccc12 [7,2′-Dihydroxyflavone]	
little or no activity		O=c1cc(-c2cccc(O)c2)oc2cc(O)ccc12 [7,3′-Dihydroxyflavone]	
	activate ERβ	O=c1cc(-c2ccc(O)cc2)oc2cc(O)cc(O)c12 [Apigenin]	
little or no activity		COc1ccc(-c2coc3cc(O)ccc3c2=O)cc1O [Calycosin]	Breast cancer tumor formation ([1]; listed as IATERB6): do not increase uterine weight or cause breast cancer tumor formation; also recorded: do not increase uterine breast cancer tumor formation; Uterine weight [2]: do not increase uterine weight
little or no activity		O=c1cc(-c2ccc(O)c(O)c2)oc2cc(O)cc(O)c12 [Luteolin]	
little or no activity		COc1c(O)cc(O)c2c(=O)cc(-c3ccccc3)oc12 [Wogonin]	
